Species: Rattus norvegicus
Assay: Open TG-GATES - Regimen: Single
Format: toxicity, organism-based, Sprague-Dawley
Set-up: regimen Single, gender Male, age 6 weeks
Settings: in vivo, po, 5 mg/kg, route gavage, dose level Middle; for APTT / Bas / Eos / Fbg / Hb / Ht / Lym / MCH / MCHC / MCV / Mono / Neu / PT / Plat / RBC / Ret / WBC: tissue Blood; for KIDNEY_L / KIDNEY_R / KIDNEY_TOTAL: tissue Kidney; for ALP / ALT / AST / CRE / Cl / DBIL / GLC / IP / K / LDH / Na / PL / RALB / TBIL / TC / TG / TP / gamma-GTP: tissue Plasma

Q: Which results are given for `COc1cc2c(c(OC)c1OC)-c1ccc(OC)c(=O)cc1[C@@H](NC(C)=O)CC2` [COLCHICINE]?
A: APTT (3 h): 16.4 s; Bas (3 h): 0%; Eos (3 h): 0.8%; Fbg (3 h): 217.6 mg/dL; Hb (3 h): 13.6 g/dL; Ht (3 h): 41.3%; Lym (3 h): 83.2%; MCH (3 h): 21.9 pg; MCHC (3 h): 32.8%; MCV (3 h): 66.5 fL; Mono (3 h): 7.2%; Neu (3 h): 9.2%; PT (3 h): 12.1 s; Plat (3 h): 112.7 x10_4/uL; RBC (3 h): 622 x10_4/ul; Ret (3 h): 9.5%; WBC (3 h): 111.5 x10_2/uL; KIDNEY_L (3 h): 0.9 g; KIDNEY_R (3 h): 1 g; KIDNEY_TOTAL (3 h): 1.9 g; ALP (3 h): 915.6 IU/L; ALT (3 h): 52.6 IU/L; AST (3 h): 119.2 IU/L; CRE (3 h): 0.4 mg/dL; Cl (3 h): 103.4 meq/L; DBIL (3 h): 0.046 mg/dL; GLC (3 h): 193.4 mg/dL; IP (3 h): 9.1 mg/dL; K (3 h): 4.5 meq/L; LDH (3 h): 248 IU/L; Na (3 h): 139 meq/L; PL (3 h): 133.8 mg/dL; RALB (3 h): 3.7 g/dL; TBIL (3 h): 0.4 mg/dL; TC (3 h): 79.6 mg/dL; TG (3 h): 53 mg/dL; TP (3 h): 5.5 g/dL; gamma-GTP (3 h): 1 IU/L; TERMINAL_BW (6 h): 218.4 g; APTT (6 h): 17.4 s; Bas (6 h): 0%; Eos (6 h): 0.6%; Fbg (6 h): 205.2 mg/dL; Hb (6 h): 13.5 g/dL; Ht (6 h): 41.4%; Lym (6 h): 72.2%; MCH (6 h): 21 pg; MCHC (6 h): 32.6%; MCV (6 h): 64.3 fL; Mono (6 h): 10.8%; Neu (6 h): 16.2%; PT (6 h): 12.5 s; Plat (6 h): 107.8 x10_4/uL; RBC (6 h): 644.8 x10_4/ul; Ret (6 h): 8.9%; WBC (6 h): 105.2 x10_2/uL; KIDNEY_L (6 h): 1 g; KIDNEY_R (6 h): 1 g; KIDNEY_TOTAL (6 h): 1.9 g; ALP (6 h): 1038.4 IU/L; ALT (6 h): 103.8 IU/L; AST (6 h): 216.8 IU/L; CRE (6 h): 0.5 mg/dL; Cl (6 h): 103.2 meq/L; DBIL (6 h): 0.048 mg/dL; GLC (6 h): 180.2 mg/dL; IP (6 h): 9.4 mg/dL; K (6 h): 4.6 meq/L; LDH (6 h): 340.6 IU/L; Na (6 h): 139.6 meq/L; PL (6 h): 118.4 mg/dL; RALB (6 h): 3.7 g/dL; TBIL (6 h): 0.4 mg/dL; TC (6 h): 64 mg/dL; TG (6 h): 35.2 mg/dL; TP (6 h): 5.5 g/dL; gamma-GTP (6 h): 1 IU/L; TERMINAL_BW (9 h): 217.1 g; APTT (9 h): 16.7 s; Bas (9 h): 0%; Eos (9 h): 1%; Fbg (9 h): 207.8 mg/dL; Hb (9 h): 13.6 g/dL; Ht (9 h): 41.3%; Lym (9 h): 67.4%; MCH (9 h): 21.5 pg; MCHC (9 h): 32.9%; MCV (9 h): 65.4 fL; Mono (9 h): 12%; Neu (9 h): 20.4%; PT (9 h): 12.6 s; Plat (9 h): 108.3 x10_4/uL; RBC (9 h): 631.6 x10_4/ul; Ret (9 h): 9.1%; WBC (9 h): 93.9 x10_2/uL; KIDNEY_L (9 h): 1 g; KIDNEY_R (9 h): 1 g; KIDNEY_TOTAL (9 h): 2 g; ALP (9 h): 1040.6 IU/L; ALT (9 h): 165.4 IU/L; AST (9 h): 290.6 IU/L; CRE (9 h): 0.5 mg/dL; Cl (9 h): 103.4 meq/L; DBIL (9 h): 0.098 mg/dL; GLC (9 h): 191.6 mg/dL; IP (9 h): 8.8 mg/dL; K (9 h): 5.1 meq/L; LDH (9 h): 265.2 IU/L; Na (9 h): 137 meq/L; PL (9 h): 137.6 mg/dL; RALB (9 h): 3.7 g/dL; TBIL (9 h): 0.4 mg/dL; TC (9 h): 79.2 mg/dL; TG (9 h): 32 mg/dL; TP (9 h): 5.4 g/dL; gamma-GTP (9 h): 2.2 IU/L; TERMINAL_BW (24 h): 226.2 g; APTT (24 h): 16.3 s; Bas (24 h): 0%; Eos (24 h): 1%; Fbg (24 h): 208.6 mg/dL; Hb (24 h): 13.6 g/dL; Ht (24 h): 41.5%; Lym (24 h): 78.4%; MCH (24 h): 21.6 pg; MCHC (24 h): 32.8%; MCV (24 h): 65.8 fL; Mono (24 h): 9.8%; Neu (24 h): 10.8%; PT (24 h): 11.2 s; Plat (24 h): 117.7 x10_4/uL; RBC (24 h): 631.6 x10_4/ul; Ret (24 h): 7.6%; WBC (24 h): 120.4 x10_2/uL; KIDNEY_L (24 h): 1 g; KIDNEY_R (24 h): 1 g; KIDNEY_TOTAL (24 h): 2 g; ALP (24 h): 975.4 IU/L; ALT (24 h): 65.4 IU/L; AST (24 h): 110.6 IU/L; CRE (24 h): 0.6 mg/dL; Cl (24 h): 104 meq/L; DBIL (24 h): 0.064 mg/dL; GLC (24 h): 191.8 mg/dL; IP (24 h): 5.3 mg/dL; K (24 h): 4.7 meq/L; LDH (24 h): 116 IU/L; Na (24 h): 138 meq/L; PL (24 h): 125.4 mg/dL; RALB (24 h): 3.7 g/dL; TBIL (24 h): 0.4 mg/dL; TC (24 h): 71.2 mg/dL; TG (24 h): 58 mg/dL; TP (24 h): 5.6 g/dL; gamma-GTP (24 h): 1.2 IU/L
